Assay results taken from patent US5118705A, “Water soluble salts of purpuromycin and pharmaceutical formulations thereof” (Gruppo Lepetit S.p.A., priority 1990, dated 1992).
Values after ≈ are worked out from the molar mass of the structure shown. “Also recorded” adds a separate entry of the source. Read-outs that look alike come from different tables or passages of the source.

How the values were obtained:
[1] = tested on: Gardnerella vaginalis ATCC 14018 and other 11 clinical isolates; test: Activity against Gardnerella vaginalis, standard two fold dilution methods; conditions: MIC 8 mcg/ml; 12 strains tested
Protocol: The strains were grown on Casman medium (Difco) plus 5% (v/v) whole rabbit blood and 0.15 (v/v) lysed rabbit blood. Inoculum size: approximately 10^4 colony forming units per spot. Incubation in an anaerobic hood: 48 hours at 37° C.

[2] = tested on: Gram-positive and Gram-negative bacteria and fungi; conditions: reported in UK Patent 1455128 and U.S. Pat. No. 3,914,257; cited from earlier work
[3] = tested on: Candida albicans ATCC 10231; test: Activity against Candida strains, two-fold dilution method; type: cell-based; conditions: Candida albicans, ATCC10231; 20 h at 30° C., pH 7.4; read-out: MIC
Protocol: (§1) This set of experiments included also one strain each of two other Candida species, Candida tropicalis and Candida kruzei. The M.I.C. were determined by the two-fold dilution method in buffered (0.01 M phosphate buffer, pH 7.4) yeast nitrogen base medium (Difco) supplemented with 1.5 g/liter asparagine in microtiter trays. Inocula were approximately 10^4 colony forming units/ml. Incubation was for 20 h at 30° C. Purpuromycin was dissolved in DMSO and added to the cultures as above.

[4] = tested on: Candida albicans SKF 2270; test: as above; type: cell-based; conditions: Candida albicans, SKF2270; 20 h at 30° C., pH 7.4; read-out: MIC
Protocol: as §1

[5] = Stability; type: physicochemical
[6] = tested on: Candida albicans (19 clinical isolates); test: Activity against Candida strains, two-fold dilution method; type: cell-based; conditions: 20 h at 30° C., pH 7.4
Protocol: (§2) This set of experiments included also one strain each of two other Candida species, Candida tropicalis and Candida kruzei. The M.I.C. were determined by the two-fold dilution method in buffered (0.01 M phosphate buffer, pH 7.4) yeast nitrogen base medium (Difco) supplemented with 1.5 g/liter asparagine in microtiter trays. Inocula were approximately 10^4 colony forming units/ml. Incubation was for 20 h at 30° C. Purpuromycin was dissolved in DMSO and added to the cultures as above. The following TABLE IV reports the MIC values for the whole set of strains.

[7] = tested on: Candida kruzei L 244; test: as above; type: cell-based; conditions: L244, 20 h at 30° C., pH 7.4
Protocol: as §2

[8] = tested on: Candida tropicalis L 243; test: as above; type: cell-based; conditions: L243, 20 h at 30° C., pH 7.4
Protocol: as §2

[9] = tested on: Haemophilus influenzae ATCC 19418; test: In vitro activity, M.I.C., microbroth dilution; type: cell-based; conditions: salts calculated as weight of purpuromycin; 37° C., 48 h, 5% CO2
Protocol: (§3) MIC were determined by the microbroth dilution test. Bacteria were grown at 37° C., fungi at 30° C. Incubation was for 20 h, except for Propionibacterium acnes, Bacteroides fragilis, Neisseria gonorrhoeae, Haemophilus influenzae (48 h) and Trichophyton mentagrophytes (72h) Neisseria gonorrhoeae and Haemophilus influenzae were incubated in a CO2 -enriched (5%) atmosphere; Propionibacterium acnes and Bacteroides fragilis in an anaerobic hood. Media used were: Oxoid Iso-sensitest broth (Staphylococci, Enterococcus faecalis and Escherichia coli); Difco Todd-Hewitt broth (streptococci); Difco GC base broth with 1% BBL IsoVitaleX (Neisseria gonorrhoeae); Difco Brain-Heart Infusion broth with 1% Difco supplement C (Haemophilus influenzae); Difco Wilkins-Chalgren broth (Propionibacterium acnes and Bacteroides fragilis); Difco Yeast Nitrogen Base broth with 1.5 g/1 asparagine (Candida albicans); Difco Sabouraud-dextrose broth (Trichophyton mentagrophytes). Inocula were approximately 10^4 CFU/ml.

[10] = tested on: Escherichia coli SKF 12140; test: In vitro activity, M.I.C., microbroth dilution; type: cell-based; conditions: salts calculated as weight of purpuromycin; 37° C., 20 h
Protocol: as §3

[11] = tested on: Staph. haemolyticus L602; test: In vitro activity, M.I.C., microbroth dilution; type: cell-based; conditions: salts calculated as weight of purpuromycin; 37° C., 20 h
Protocol: as §3

[12] = tested on: Enterococcus faecalis ATCC 7080; test: In vitro activity, M.I.C., microbroth dilution; type: cell-based; conditions: salts calculated as weight of purpuromycin; 37° C., 20 h
Protocol: as §3

[13] = tested on: Staph. epidermidis ATCC 12228; test: In vitro activity, M.I.C., microbroth dilution; type: cell-based; conditions: salts calculated as weight of purpuromycin; 37° C., 20 h
Protocol: as §3

[14] = tested on: Strep. pyogenes L49; test: In vitro activity, M.I.C., microbroth dilution; type: cell-based; conditions: salts calculated as weight of purpuromycin; 37° C., 20 h
Protocol: as §3

[15] = tested on: Bacteroides fragilis ATCC 23745; test: In vitro activity, M.I.C., microbroth dilution; type: cell-based; conditions: salts calculated as weight of purpuromycin; 37° C., 48 h, anaerobic hood
Protocol: as §3

[16] = tested on: Staph. aureus Tour L 165; test: In vitro activity, M.I.C., microbroth dilution; type: cell-based; conditions: salts calculated as weight of purpuromycin; 37° C., 20 h
Protocol: as §3

[17] = tested on: Candida albicans SKF 2270; test: In vitro activity, M.I.C., microbroth dilution; type: cell-based; conditions: salts calculated as weight of purpuromycin; 30° C., 20 h
Protocol: as §3

[18] = tested on: Propionibacterium acnes ATCC 6919; test: In vitro activity, M.I.C., microbroth dilution; type: cell-based; conditions: salts calculated as weight of purpuromycin; 37° C., 48 h, anaerobic hood
Protocol: as §3

[19] = tested on: Trichophyton mentagrophytes SKF 17410; test: In vitro activity, M.I.C., microbroth dilution; type: cell-based; conditions: salts calculated as weight of purpuromycin; 30° C., 72 h
Protocol: as §3

[20] = tested on: Strep. pneumoniae L44; test: In vitro activity, M.I.C., microbroth dilution; type: cell-based; conditions: salts calculated as weight of purpuromycin; 37° C., 20 h
Protocol: as §3

[21] = tested on: Neisseria gonorrhoeae L 997; test: In vitro activity, M.I.C., microbroth dilution; type: cell-based; conditions: salts calculated as weight of purpuromycin; 37° C., 48 h, 5% CO2
Protocol: as §3

[22] = tested on: Trichomonas vaginalis TVL; test: In vitro activity, M.I.C., microtiter trays; type: cell-based; conditions: salts calculated as weight of purpuromycin; 48 h, anaerobic hood, 37° C.
Protocol: MIC were performed in flat-bottomed microtiter trays, with 0.2 ml per well. The medium was TYM modified basal medium (Merck) plus 10% horse serum (treated to inactivate complement). The inoculum was ca. 10^5 organisms/ml; incubation was for 48 h in an anaerobic hood (37° C.).The microtiter wells were read using an inverted light microscope. The MIC was taken as the lowest concentration at which no live (mobile) protozoa were seen.

[23] = Solubility and pH of solution; type: physicochemical
[24] = tested on: Gardnerella vaginalis; test: In vitro activity, M.I.C., agar dilution; type: cell-based; conditions: salts calculated as weight of purpuromycin; ATCC 14018 and 10 clinical isolates, all same M.I.C.; inoculum ca. 10^5 CFU, 48 h
Protocol: **The assay was carried out on strain ATCC 14018 and 10 clinical isolates
Incubation was for 48 h in an anaerobic hood (37° C.); inoculum ca. 10^5 CFU.

[25] = tested on: Trichomonas vaginalis strain TVL; test: Activity against Trichomonas vaginalis, two-fold tube dilution method; type: cell-based; conditions: Trichomonas vaginalis, 48 hours at 37° C.
Protocol: Trichomonas vaginalis (applicant's internal code TVL) was grown on Trichomonas Culture Medium Base (Merck) plus 10% heat treated horse serum. Inoculum: approximately 10^5 organisms/ml. Incubation: 48 hours at 37° C.

In the case of `COC(=O)c1cc2cc3c(c(O)c2c(=O)o1)OC1(Cc2c(O)c4c(c(O)c2O1)C(=O)C(OC)=CC4=O)CC3O` (stereo not drawn) [Purpuromycin], the “Number of strains with MIC of 8 mcg/ml” value [1] is listed as 12 strains, the “in vitro antimicrobial activity” value [2] is listed as “active in vitro against both Gram-positive and Gram-negative bacteria and fungi” and the MIC [3] is listed as 0.5 µg/mL (≈ 0.929 µM). For the same compound, the MIC [4] was 1 µg/mL (≈ 1.86 µM), the “stability (in words)” value [5] was “hydrolysis of the carbomethoxy group; also recorded: undergoes a degradation process” and the MIC [6] was 1 to 4 µg/mL (≈ 1.86 to 7.43 µM). The MIC [7] was 4 µg/mL (≈ 7.43 µM), the MIC [8] was 2 µg/mL (≈ 3.71 µM) and the M.I.C. [9] was 0.06 mg/L. The M.I.C. [10] was 8 mg/L, the M.I.C. [11] was 0.06 mg/L and the M.I.C. [12] was 0.06 mg/L. For the same compound, the M.I.C. [13] was 0.06 mg/L, the M.I.C. [14] was 0.06 mg/L and the M.I.C. [15] was 0.13 mg/L. The M.I.C. [16] was 0.06 mg/L, the M.I.C. [17] was 1 mg/L and the M.I.C. [18] was 0.06 mg/L. For the same compound, the M.I.C. [19] was 1 mg/L, the M.I.C. [20] was 0.06 mg/L and the M.I.C. [21] was 0.06 mg/L. The M.I.C. [22] was 4 mg/L, the solubility ([23]; buffer, pH 8.5, aqueous buffer, pH 8.5 buffer, read-out: solubility in water) was 22 µg/mL (≈ 40.9 µM) and the “solubility (in words)” value ([23]; solvent) was “practically insoluble in water and in lower alkanols; also recorded: poorly soluble in most organic solvents”. The M.I.C. [24] was 16 mg/L, the MIC ([25]; dissolved in DMSO, read-out: minimal inhibitory concentration (M.I.C.)) was 4 µg/mL (≈ 7.43 µM) and the MIC ([25]; read-out: MIC) was 4 µg/mL (≈ 7.43 µM).
